Experiment [1] addresses T1, Atypical kinase COQ8B, mitochondrial (Homo sapiens) (UniProt Q96D53).
T1 sequence (whole entry): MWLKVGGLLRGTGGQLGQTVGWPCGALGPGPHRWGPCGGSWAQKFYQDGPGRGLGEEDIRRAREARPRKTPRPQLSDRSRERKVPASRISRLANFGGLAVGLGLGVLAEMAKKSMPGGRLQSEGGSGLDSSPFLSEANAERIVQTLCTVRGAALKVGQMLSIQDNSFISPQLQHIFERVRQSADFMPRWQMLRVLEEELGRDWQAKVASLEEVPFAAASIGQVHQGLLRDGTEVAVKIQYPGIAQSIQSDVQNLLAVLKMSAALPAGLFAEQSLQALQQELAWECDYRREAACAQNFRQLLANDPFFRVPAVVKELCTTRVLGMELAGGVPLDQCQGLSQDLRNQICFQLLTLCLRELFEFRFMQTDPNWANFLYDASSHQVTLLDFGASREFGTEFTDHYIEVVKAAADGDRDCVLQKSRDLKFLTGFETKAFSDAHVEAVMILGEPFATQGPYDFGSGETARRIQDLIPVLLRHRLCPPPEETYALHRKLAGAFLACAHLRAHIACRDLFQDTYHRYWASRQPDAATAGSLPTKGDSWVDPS
Kind of experiment: Inhibition of ADCK4 (unknown origin) assessed as residual activity at 1000 nM by KINOMEscan analysis relative to control.

Experiment [2] deals with T2, Mitogen-activated protein kinase kinase kinase 3 (Homo sapiens) (UniProt Q99759).
T2 sequence (whole entry): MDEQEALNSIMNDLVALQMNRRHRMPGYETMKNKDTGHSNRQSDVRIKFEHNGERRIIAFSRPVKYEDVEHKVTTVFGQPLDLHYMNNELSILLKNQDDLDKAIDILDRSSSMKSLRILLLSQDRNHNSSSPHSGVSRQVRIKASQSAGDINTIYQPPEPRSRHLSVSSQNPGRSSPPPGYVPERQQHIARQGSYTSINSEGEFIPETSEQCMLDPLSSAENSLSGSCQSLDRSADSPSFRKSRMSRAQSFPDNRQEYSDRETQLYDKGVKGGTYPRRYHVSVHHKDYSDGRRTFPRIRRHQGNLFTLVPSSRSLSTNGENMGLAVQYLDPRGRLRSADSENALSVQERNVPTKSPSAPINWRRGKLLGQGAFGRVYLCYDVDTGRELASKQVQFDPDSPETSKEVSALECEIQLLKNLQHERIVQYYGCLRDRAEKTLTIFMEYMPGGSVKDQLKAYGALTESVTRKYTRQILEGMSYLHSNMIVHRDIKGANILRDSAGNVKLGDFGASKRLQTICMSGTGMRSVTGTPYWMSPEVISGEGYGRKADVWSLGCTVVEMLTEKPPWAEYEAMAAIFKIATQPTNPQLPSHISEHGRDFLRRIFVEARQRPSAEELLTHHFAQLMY
Kind of experiment: Inhibition of MAP3K3 (unknown origin) assessed as residual activity at 1000 nM by KINOMEscan analysis relative to control.

The target in experiment [3] is Hepatocyte growth factor receptor (Homo sapiens) (UniProt P08581). Kind of experiment: Inhibition of MET (unknown origin) assessed as residual activity at 1000 nM by KINOMEscan analysis relative to control.
Sequence of Hepatocyte growth factor receptor (Homo sapiens) (P08581 whole entry): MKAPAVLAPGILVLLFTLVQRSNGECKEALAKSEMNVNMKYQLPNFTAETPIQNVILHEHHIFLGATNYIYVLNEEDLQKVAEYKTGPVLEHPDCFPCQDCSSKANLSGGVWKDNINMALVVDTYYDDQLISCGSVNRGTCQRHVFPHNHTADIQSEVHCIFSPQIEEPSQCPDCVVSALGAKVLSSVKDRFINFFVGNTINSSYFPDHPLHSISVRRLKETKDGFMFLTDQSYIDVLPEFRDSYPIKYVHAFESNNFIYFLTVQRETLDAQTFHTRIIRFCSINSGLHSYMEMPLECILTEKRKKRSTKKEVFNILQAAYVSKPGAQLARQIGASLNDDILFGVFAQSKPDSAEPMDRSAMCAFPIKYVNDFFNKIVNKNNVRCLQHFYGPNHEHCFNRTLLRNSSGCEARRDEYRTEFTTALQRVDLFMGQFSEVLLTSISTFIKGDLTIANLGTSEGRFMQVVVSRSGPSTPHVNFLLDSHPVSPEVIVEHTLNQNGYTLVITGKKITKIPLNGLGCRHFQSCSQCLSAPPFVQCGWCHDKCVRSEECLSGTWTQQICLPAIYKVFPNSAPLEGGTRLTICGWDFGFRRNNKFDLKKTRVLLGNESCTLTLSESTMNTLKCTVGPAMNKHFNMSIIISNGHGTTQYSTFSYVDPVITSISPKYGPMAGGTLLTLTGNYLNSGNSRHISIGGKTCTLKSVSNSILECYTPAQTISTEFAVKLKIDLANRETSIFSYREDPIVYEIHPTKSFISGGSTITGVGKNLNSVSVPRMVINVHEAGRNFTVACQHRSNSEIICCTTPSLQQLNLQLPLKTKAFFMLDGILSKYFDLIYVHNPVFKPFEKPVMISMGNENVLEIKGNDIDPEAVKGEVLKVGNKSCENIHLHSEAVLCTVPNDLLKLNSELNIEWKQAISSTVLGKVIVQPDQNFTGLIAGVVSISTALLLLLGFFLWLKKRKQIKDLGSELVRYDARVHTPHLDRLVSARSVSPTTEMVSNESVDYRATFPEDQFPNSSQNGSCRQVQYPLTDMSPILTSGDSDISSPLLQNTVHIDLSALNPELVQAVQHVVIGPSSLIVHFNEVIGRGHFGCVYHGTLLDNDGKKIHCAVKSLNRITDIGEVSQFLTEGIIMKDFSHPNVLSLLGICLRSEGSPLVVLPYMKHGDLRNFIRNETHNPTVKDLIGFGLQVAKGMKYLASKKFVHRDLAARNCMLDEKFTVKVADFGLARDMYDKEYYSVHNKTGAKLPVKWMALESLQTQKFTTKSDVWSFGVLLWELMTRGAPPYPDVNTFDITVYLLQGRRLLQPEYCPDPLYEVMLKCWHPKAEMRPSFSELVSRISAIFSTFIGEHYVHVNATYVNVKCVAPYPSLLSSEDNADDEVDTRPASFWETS
The target of experiment [4] is Serine/threonine-protein kinase 32B (Homo sapiens) (UniProt Q9NY57). Kind of experiment: Inhibition of YANK2 (unknown origin) assessed as residual activity at 1000 nM by KINOMEscan analysis relative to control.
Sequence of Serine/threonine-protein kinase 32B (Homo sapiens) (Q9NY57 whole entry): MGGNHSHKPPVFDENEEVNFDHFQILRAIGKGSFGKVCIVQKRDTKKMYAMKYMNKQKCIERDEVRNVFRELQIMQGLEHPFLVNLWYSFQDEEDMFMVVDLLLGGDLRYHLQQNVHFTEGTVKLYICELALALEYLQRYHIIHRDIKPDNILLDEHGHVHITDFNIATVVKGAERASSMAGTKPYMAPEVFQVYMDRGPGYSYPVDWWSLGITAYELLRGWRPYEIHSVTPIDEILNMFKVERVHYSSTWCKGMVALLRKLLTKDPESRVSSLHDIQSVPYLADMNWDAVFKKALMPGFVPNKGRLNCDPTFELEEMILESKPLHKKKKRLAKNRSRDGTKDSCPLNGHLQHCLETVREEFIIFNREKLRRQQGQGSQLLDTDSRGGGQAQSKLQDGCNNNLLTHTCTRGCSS
The target in experiment [5] is Serine/threonine-protein kinase pim-3 (Homo sapiens) (UniProt Q86V86). The experiment in a line: Inhibition of PIM3 (unknown origin) assessed as residual activity at 1000 nM by KINOMEscan analysis relative to control.
In experiment [6] the target is Wee1-like protein kinase 2 (Homo sapiens) (UniProt P0C1S8). The experiment in a line: Inhibition of WEE2 (unknown origin) assessed as residual activity at 1000 nM by KINOMEscan analysis relative to control.
Sequence of Wee1-like protein kinase 2 (Homo sapiens) (P0C1S8 whole entry, looked up): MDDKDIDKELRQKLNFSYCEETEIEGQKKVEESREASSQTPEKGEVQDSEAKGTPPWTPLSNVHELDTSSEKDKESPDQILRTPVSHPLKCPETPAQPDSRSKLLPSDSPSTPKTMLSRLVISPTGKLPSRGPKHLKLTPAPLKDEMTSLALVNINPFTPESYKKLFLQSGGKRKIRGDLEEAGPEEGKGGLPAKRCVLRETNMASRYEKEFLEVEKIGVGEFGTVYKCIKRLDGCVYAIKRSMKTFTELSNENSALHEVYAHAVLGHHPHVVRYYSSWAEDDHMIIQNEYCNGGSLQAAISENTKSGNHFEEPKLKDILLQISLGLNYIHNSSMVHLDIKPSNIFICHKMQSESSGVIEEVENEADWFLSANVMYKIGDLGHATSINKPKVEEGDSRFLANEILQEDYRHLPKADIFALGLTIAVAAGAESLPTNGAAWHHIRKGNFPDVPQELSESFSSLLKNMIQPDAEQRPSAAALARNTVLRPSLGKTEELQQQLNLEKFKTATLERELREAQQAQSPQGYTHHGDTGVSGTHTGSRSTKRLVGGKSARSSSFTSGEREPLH
The target of experiment [7] is Protein-tyrosine kinase 2-beta (Homo sapiens) (UniProt Q14289). The experiment in a line: Inhibition of PYK2 (unknown origin) assessed as residual activity at 1000 nM by KINOMEscan analysis relative to control.
Sequence of Protein-tyrosine kinase 2-beta (Homo sapiens) (Q14289 whole entry, looked up): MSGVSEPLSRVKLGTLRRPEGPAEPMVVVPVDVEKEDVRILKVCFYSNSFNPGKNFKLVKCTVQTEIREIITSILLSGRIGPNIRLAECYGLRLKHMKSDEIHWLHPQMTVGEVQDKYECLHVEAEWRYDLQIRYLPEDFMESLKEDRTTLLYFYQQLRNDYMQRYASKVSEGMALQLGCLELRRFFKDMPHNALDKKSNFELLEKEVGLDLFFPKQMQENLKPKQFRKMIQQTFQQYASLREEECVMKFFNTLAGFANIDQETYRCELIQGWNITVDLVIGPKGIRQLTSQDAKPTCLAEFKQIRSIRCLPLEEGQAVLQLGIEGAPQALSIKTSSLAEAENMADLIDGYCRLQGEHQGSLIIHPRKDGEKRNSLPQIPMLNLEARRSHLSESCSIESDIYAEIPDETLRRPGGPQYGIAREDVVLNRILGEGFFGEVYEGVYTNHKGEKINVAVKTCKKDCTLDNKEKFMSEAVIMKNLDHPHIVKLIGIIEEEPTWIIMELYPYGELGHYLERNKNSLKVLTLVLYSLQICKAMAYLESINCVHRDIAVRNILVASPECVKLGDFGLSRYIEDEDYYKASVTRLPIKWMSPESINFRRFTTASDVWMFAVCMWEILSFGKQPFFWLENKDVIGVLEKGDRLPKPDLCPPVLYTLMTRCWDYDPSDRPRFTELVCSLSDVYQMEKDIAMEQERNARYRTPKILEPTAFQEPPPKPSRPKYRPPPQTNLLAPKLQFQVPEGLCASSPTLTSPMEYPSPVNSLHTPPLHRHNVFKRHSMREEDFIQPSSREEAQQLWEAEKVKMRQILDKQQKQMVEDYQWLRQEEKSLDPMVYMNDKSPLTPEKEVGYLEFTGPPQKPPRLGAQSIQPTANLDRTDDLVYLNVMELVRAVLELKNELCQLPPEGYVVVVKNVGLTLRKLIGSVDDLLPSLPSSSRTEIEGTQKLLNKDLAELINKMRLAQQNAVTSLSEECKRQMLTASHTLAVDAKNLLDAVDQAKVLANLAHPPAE
Experiment [8] deals with T3, Serine/threonine-protein kinase LATS2 (Homo sapiens) (UniProt Q9NRM7).
T3 sequence (whole entry): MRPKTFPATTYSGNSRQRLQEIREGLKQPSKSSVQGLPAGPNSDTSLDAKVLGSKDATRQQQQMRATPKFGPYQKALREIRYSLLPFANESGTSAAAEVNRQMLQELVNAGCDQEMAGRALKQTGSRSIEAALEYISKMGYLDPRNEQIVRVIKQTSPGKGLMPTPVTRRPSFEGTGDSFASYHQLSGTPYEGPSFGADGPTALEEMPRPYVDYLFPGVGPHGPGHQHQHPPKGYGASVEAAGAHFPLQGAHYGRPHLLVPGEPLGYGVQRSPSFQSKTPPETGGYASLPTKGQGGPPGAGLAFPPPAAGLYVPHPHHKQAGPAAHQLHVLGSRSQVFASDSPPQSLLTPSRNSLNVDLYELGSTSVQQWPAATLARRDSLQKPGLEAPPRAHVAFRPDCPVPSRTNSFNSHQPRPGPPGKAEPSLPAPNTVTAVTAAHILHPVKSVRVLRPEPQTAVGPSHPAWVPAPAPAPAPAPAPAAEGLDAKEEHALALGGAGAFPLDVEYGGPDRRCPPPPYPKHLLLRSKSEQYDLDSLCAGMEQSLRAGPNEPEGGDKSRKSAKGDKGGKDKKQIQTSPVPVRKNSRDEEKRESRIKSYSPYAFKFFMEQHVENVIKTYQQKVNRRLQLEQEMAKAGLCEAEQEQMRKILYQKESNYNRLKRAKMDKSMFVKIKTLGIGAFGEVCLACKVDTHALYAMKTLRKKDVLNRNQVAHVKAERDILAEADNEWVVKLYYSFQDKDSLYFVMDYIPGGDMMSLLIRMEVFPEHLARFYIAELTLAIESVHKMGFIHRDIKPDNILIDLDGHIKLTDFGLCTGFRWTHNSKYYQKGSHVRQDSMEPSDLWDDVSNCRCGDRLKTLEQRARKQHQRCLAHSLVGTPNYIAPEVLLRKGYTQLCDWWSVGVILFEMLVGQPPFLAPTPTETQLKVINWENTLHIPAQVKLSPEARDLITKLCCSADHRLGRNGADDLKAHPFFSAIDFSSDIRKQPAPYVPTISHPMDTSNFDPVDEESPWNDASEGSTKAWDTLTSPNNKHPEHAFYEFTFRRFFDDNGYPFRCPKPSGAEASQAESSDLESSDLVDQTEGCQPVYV
The experiment in a line: Inhibition of LATS2 (unknown origin) assessed as residual activity at 1000 nM by KINOMEscan analysis relative to control.

Experiment [9] concerns the target Platelet-derived growth factor receptor alpha (Homo sapiens) (UniProt P16234). Kind of experiment: Inhibition of PDGFRA (unknown origin) assessed as residual activity at 1000 nM by KINOMEscan analysis relative to control.

Sequence of Platelet-derived growth factor receptor alpha (Homo sapiens) (P16234 whole entry): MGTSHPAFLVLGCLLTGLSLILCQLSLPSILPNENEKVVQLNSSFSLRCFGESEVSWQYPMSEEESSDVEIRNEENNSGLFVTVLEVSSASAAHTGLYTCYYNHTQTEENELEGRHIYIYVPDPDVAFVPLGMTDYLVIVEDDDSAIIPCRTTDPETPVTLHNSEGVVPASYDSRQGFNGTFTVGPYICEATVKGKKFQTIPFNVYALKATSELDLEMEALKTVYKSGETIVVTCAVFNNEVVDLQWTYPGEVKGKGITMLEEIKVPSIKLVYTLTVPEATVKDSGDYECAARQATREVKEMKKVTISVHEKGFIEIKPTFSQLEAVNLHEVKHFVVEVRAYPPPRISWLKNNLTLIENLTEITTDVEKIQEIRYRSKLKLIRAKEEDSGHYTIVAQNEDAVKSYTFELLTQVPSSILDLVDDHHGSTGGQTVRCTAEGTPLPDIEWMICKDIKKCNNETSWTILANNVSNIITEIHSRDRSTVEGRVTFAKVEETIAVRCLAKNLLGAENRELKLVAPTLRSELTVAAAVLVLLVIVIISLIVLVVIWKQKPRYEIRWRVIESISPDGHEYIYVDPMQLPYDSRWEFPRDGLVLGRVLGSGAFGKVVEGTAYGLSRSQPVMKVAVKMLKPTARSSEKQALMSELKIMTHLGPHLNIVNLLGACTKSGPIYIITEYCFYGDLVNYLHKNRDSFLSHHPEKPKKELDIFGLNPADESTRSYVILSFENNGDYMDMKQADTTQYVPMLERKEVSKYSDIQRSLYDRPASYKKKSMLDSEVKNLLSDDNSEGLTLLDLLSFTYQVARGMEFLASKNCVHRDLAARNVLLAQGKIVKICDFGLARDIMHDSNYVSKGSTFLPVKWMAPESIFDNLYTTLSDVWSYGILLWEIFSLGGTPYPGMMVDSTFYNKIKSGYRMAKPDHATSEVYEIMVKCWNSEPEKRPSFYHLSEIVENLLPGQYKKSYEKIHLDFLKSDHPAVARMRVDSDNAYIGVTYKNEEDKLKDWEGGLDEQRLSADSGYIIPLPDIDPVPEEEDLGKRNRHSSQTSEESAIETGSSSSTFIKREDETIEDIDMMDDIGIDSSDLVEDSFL

For `COc1cc2nc(C)nc(N[C@H](C)c3cccc(-c4cn[nH]c4)c3)c2cc1OC`, the Activity came to 89% in experiment [1]; 95% in experiment [2]; 97% in experiment [3]; 86% in experiment [4]; 90% in [5]; 65% in experiment [6]. For the same compound, the values for the Activity in experiment [7], in [8] and in [9] were 38%, 100% and 100%, respectively.

For the compound `COc1cc2ncnc(N[C@H](C)c3cccc4ccccc34)c2cc1OC`, the Activity in experiment [1] worked out at 100%; in experiment [2] it was 100%; in experiment [3], 100%; in [4], 92%; in experiment [5] it was 100%; in experiment [6], 100%. Further, the Activity in experiment [7] was 100%; in [8] it was 89%; in experiment [9] it was 100%.

The values are drawn from ChEMBL document CHEMBL5678818, “Discovery of potent SOS1 inhibitors that block RAS activation via disruption of the RAS-SOS1 interaction” (Proc Natl Acad Sci U S A, 2019).
